# PMC5431807, “Structural Basis for Importin-α Binding of the Human Immunodeficiency Virus Tat” (Scientific Reports, 2017)
# “Also recorded” adds a separate entry of the source.
# Experiments:
# importin-α [1] = target: T1, importin-α (Mus musculus, UniProt P52293); assay: Binding of importin-α to immobilised GST-Tat:NLS/CPP on glutathione column, SDS-PAGE; parameters: 6-His; made in house; The pET30 vector and Studier autoinduction imply E. coli (own inference); details: GST-Tat:NLS/CPP fusion immobilised on glutathione column, importin-α passed over
# importin-α [2] = target: T1, importin-α; assay: X-ray crystal structure of Tat:NLS/CPP importin-α complex (PDB 5SVZ)
# [3] = overall binding, 2.0 Å structure
sequence,measurement,setting,value
GRKKRRQRRRAPQN [Tat:NLS/CPP],binding to importin-α (column retention / complex formation),importin-α [1],strong and direct interaction
same,binding site on importin-α,importin-α [2]; 2.0 Å structure,binds to the major binding site of importin-α within ARM domains 2–4; also recorded: no NLS residues in the minor binding site
same,hydrogen bond distance,"importin-α [2]; Tat Arg49 O – importin-α Asn235 ND2, PDBSum",2.77 Å
same,hydrogen bond distance,"importin-α [2]; Tat Arg52 NH1 – importin-α Arg106 O, PDBSum",2.81 Å
same,hydrogen bond distance,"importin-α [2]; Tat Arg52 NH1 – importin-α Leu104 O, PDBSum",2.84 Å
same,hydrogen bond distance,"importin-α [2]; Tat Arg52 NH2 – importin-α Arg106 O, PDBSum",3.02 Å
same,hydrogen bond distance,"importin-α [2]; Tat Arg52 NH2 – importin-α Glu107 O, PDBSum",3.20 Å
same,hydrogen bond distance,"importin-α [2]; Tat Arg53 N – importin-α Asn146 OD1, PDBSum",2.89 Å
same,hydrogen bond distance,"importin-α [2]; Tat Arg53 NH1 – importin-α Gln181 OE1, PDBSum",2.49 Å
same,hydrogen bond distance,"importin-α [2]; Tat Arg53 O – importin-α Asn146 ND2, PDBSum",2.66 Å
same,hydrogen bond distance,"importin-α [2]; Tat Arg53 O – importin-α Trp142 NE1, PDBSum",3.24 Å
same,salt bridge distance,"importin-α [2]; Tat Lys50 NZ – importin-α Asp192 OD1, salt bridge interaction, PDBSum",2.89 Å
same,hydrogen bond distance,"importin-α [2]; Tat Lys50 NZ – importin-α Gly150 O, PDBSum",2.91 Å
same,hydrogen bond distance,"importin-α [2]; Tat Lys50 NZ – importin-α Thr155 OG1, PDBSum",2.80 Å
same,hydrogen bond distance,"importin-α [2]; Tat Lys51 N – importin-α Asn188 OD1, PDBSum",2.81 Å
same,hydrogen bond distance,"importin-α [2]; Tat Lys51 O – importin-α Asn188 ND2, PDBSum",2.79 Å
same,hydrogen bond distance,"importin-α [2]; Tat Lys51 O – importin-α Trp184 NE1, PDBSum",3.02 Å
same,buried surface area,importin-α [2]; [3],717 Å^2
same,number of salt bridge interactions,importin-α [2]; [3],1 salt bridge
